Columns and labels:
[1] = test system: Caco-2 cells; experiment: Caco-2 permeability; type: in vitro ADME; details: A-B, 50 µM, 120 min
[2] = target: IDO1 in HeLa cells (Homo sapiens, UniProt P14902); experiment: HeLa cell-based IDO1/kynurenine assay; details: calculated using HeLa pIC50; for LLE (lipophilic ligand efficiency): LLE = pIC50 – cLogP
[3] = Allometric scaling, predicted human dose; details: allometric scaling to cover the WB IC50 at trough
[4] = 28-day IND toxicology study in mice; type: in vivo, mouse
[5] = test system: plasma kynurenine; experiment: PK/PD study in mice, plasma kynurenine; type: in vivo, mouse; details: wild-type mice, once daily oral dosing at 50 mg/kg
[6] = 28-day IND toxicology study in dogs; type: in vivo, dog
[7] = test system: CEREP panel of over 50 receptors and enzymes; experiment: CEREP panel
[8] = test system: CT26 tumor; experiment: CT26 tumor growth in immune-compromised mice; type: in vivo, mouse; details: immune-compromised mice (nu/nu)

Chain of IDO1 in HeLa cells (P14902 whole entry): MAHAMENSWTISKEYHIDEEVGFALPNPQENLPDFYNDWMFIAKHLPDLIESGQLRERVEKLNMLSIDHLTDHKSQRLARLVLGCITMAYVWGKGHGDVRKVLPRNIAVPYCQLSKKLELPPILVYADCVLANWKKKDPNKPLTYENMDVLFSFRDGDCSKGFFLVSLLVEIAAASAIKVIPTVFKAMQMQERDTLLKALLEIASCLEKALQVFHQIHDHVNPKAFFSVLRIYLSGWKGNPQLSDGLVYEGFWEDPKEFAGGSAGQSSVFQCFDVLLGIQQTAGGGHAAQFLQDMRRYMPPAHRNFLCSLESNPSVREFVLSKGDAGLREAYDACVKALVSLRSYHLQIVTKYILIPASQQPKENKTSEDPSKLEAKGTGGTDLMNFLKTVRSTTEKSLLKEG

Caco2 Pm [1] | LE (ligand efficiency) [2] | Compound | also measured
44 × (10)^−6 cm/s | 0.45 | COCCNc1nonc1/C(=N/O)Nc1ccc(F)c(Br)c1 [Compound 4a] | 
31 × (10)^−6 cm/s | 0.51 | OCCNc1nonc1/C(=N/O)Nc1ccc(F)c(Br)c1 [Compound 4b] | LLE (lipophilic ligand efficiency) [2]: 5.8
1.8 × (10)^−6 cm/s | 0.47 | NCCNc1nonc1/C(=N/O)Nc1ccc(F)c(Br)c1 [Compound 4c] | 
19 × (10)^−6 cm/s | 0.45 | CC(=O)NCCNc1nonc1/C(=N/O)Nc1ccc(F)c(Br)c1 [Compound 4d] | 
 |  | CS(=O)(=O)NCCNc1nonc1C(=NO)Nc1ccc(F)c(Br)c1 [Compound 4e] | LLE (lipophilic ligand efficiency) [2]: 5.8
 |  | NS(=O)(=O)NCCNc1nonc1C(=NO)Nc1ccc(F)c(Br)c1 [Compound 4f, epacadostat] | predicted oral dosing in humans [3]: 50 mg twice-a-day; tolerability [4]: well-tolerated; plasma kynurenine level reached (basal level of IDO null mice) [5]: ~400 nM; tolerability [6]: well-tolerated; in vitro toxicology result, CEREP panel [7]: clean; tumor growth inhibition, treated vs control animals [8]: no difference
4.3 × (10)^−6 cm/s |  | NS(=O)(=O)NCCNc1nonc1C(=NO)Nc1ccc(F)c(Cl)c1 [Compound 4g] | 
